From patent US20090042883A1, “ANTITUMOR AGENT” (KYOWA HAKKOKOGYO CO., priority 2005, published 2009)

What was measured:
Type in all cases: cell-based
[1] = test system: human chronic myelocytic leukemia K562 cells; assay: Growth inhibition test on human chronic myelocytic leukemia K562 cells (WST-1, % viability); conditions: test compound 10 μmol/L, 72 hours, cells without test compound = 100%
Description: One thousand cells of human chronic myelocytic leukemia K562 were inoculated into each well of a 96-well microplate (manufactured by Nunc Corp.), and using RPMI1640 medium (culture medium) containing 10% fetal calf serum (FCS), preculturing was performed in a 5% carbon dioxide incubator at 37° C. for 24 hours. A dimethyl sulfoxide (DMSO) solution of each test compound prepared in a concentration of 10 mmol/L was diluted with the culture medium to a final concentration of 10 μmol/L, and the diluted solution was added to each well. The individual wells were further cultured in the 5% carbon dioxide incubator at 37° C. for 72 hours. After completion of the culturing, 10 μL of WST-1 {4-[3-(4-Iodophenyl)-2-(4-nitrophenyl)-2H-5-tetrazolio]-1,3-benzene disulfonate} labeled mixture (manufactured by Roche Diagnostic Corp.) was added to each well, and culturing was performed in the 5% carbon dioxide incubator at 37° C. for 2 hours. Using a microplate spectrophotometer (SpectraMax 340PC384; manufactured by Nihon Molecular Devices), the absorbance of each well was measured at 450 nm and 655 nm. The value obtained by subtracting the absorbance at 450 nm from the absorbance at 655 nm (absorbance difference) was calculated for each well. The value for cells not incorporated with a test compound was designated as 100%, and the value at a well not containing cells was designated as 0%. By comparing these values with the absorbance difference obtained at the well in which each test compound was added, the cell viability (% viability) after treatment with the test compound was calculated.

[2] = test system: human chronic lymphocytic leukemia-derived MEC-1 cells; assay: Growth inhibition test on human chronic lymphocytic leukemia-derived MEC-1 cells (WST-1, % viability); conditions: test compound 10 μmol/L, 72 hours, cells without test compound = 100%
Description: (§1) Ten thousand cells of human chronic lymphocytic leukemia-derived MEC-1 were inoculated into each well of a 96-well microplate (manufactured by Nunc Corp.), and using RPMI1640 medium (culture medium) containing 10% FCS, preculturing was performed in a 5% carbon dioxide incubator at 37° C. for 1 hour. A DMSO solution of each test compound prepared in a concentration of 10 mmol/L was diluted with the culture medium to a final concentration of 10 μmol/L, and the diluted solution was added to each well. The individual wells were further cultured in the 5% carbon dioxide incubator at 37° C. for 72 hours. After completion of the culturing, 10 μL of WST-1 labeled mixture (manufactured by Roche Diagnostic Corp.) was added to each well, and culturing was performed in the 5% carbon dioxide incubator at 37° C. for 3 hours. Using a microplate spectrophotometer (M-SPmax 250; manufactured by Molecular Devices Corp.), the absorbance of each well was measured at 450 nm and 655 nm. The value obtained by subtracting the absorbance at 450 nm from the absorbance at 655 nm (absorbance difference) was calculated for each well. The value for cells not incorporated with a test compound was designated as 100%, and the value at a well not containing cells was designated as 0%. By comparing these values with the absorbance difference obtained at the well in which each test compound was added, the cell viability (% viability) after treatment with the test compound was calculated.

[3] = test system: human lung cancer NCI-H596 cells; assay: Growth inhibition test on human lung cancer NCI-H596 cells (WST-1, % viability); conditions: test compound 10 μmol/L, cells without test compound = 100%
Description: as §1, with “Four thousand” for “Ten thousand”, “human lung cancer NCI-H596” for “human chronic lymphocytic leukemia-derived MEC-1”, “for 24 hours.” for “for 1 hour.”, “for 2” for “for 3”, “spectrophotometer (Model 550;” for “spectrophotometer (M-SPmax 250;”, “by Bio-Rad),” for “by Molecular Devices Corp.),”

[4] = test system: human renal cancer OS-RC-2 cells; assay: Growth inhibition test on human renal cancer OS-RC-2 cells (WST-1, % viability); conditions: test compound 10 μmol/L, 72 hours, cells without test compound = 100%
Description: as §1, with “One thousand” for “Ten thousand”, “human renal cancer OS-RC-2” for “human chronic lymphocytic leukemia-derived MEC-1”, “for 24 hours.” for “for 1 hour.”, “for 2” for “for 3”, “spectrophotometer (Model 550;” for “spectrophotometer (M-SPmax 250;”, “by Bio-Rad),” for “by Molecular Devices Corp.),”

Row | SMILES | Viability of tumor cells (% viability), Human chronic myelocytic leukemia K562 cells [1] | Viability of tumor cells (% viability), Human chronic lymphocytic leukemia MEC-1 cells [2] | Viability of tumor cells (% viability), Human lung cancer NCI-H596 cells [3] | Viability of tumor cells (% viability), Human renal cancer OS-RC-2 cells [4]
1 | CCc1c(O)cc(O)c(C(=O)c2ccc(SC)cc2)c1CC(=O)N(CCO)CCOC [Compound 95] | 4% | 4% | 14% | 18%
2 | CCc1c(O)cc(O)c(C(=O)c2ccc(OC)cc2)c1CC(=O)N1CCN(c2ncccn2)CC1 [Compound 32] | 4% | 4% | 15% | 17%
3 | CCc1c(O)cc(O)c(C(=O)c2ccc(O)c(OC)c2)c1CC(=O)N(CCOC)CCOC [Compound 106] | 4% | 4% | 12% | 16%
4 | CCc1c(O)cc(O)c(C(=O)c2ccc(OC(F)F)cc2)c1CC(=O)N(CCO)CCOC [Compound 91] | 4% | 4% | 14% | 17%
5 | CCc1c(O)cc(O)c(C(=O)c2ccc(OCCN3CCOCC3)c(OC)c2)c1CC(=O)N(CCOC)CCOC [Compound 125] | 4% | 5% | 17% | 20%
